For one series, the system named is MCF-7. Nature of the series: Cancer cell line IC50, MCF-7. The class given is cell-based. The note with it: Homo sapiens, MCF7; read-out: Cancer Cell Lines, IC50, Breast MCF-7. Here is the method: (§1) In this experiment, exponentially growing cells were seeded at 1000 cells/well and allowed to attach for 48 h. […] After 10-20 days, cells were fixed and stained with modified Wright-Giemsa stain.

The test system of another series is HT-29. Nature of the series: Cancer cell line IC50, HT-29. The format is cell-based. The note with it: Homo sapiens, read-out: Cancer Cell Lines, IC50, Colon HT-29.
For the next series, the system named is A549. Description: Cancer cell line IC50, A549. The following applies: Homo sapiens, read-out: Cancer Cell Lines, IC50, Lung A549. The class given is cell-based.
A further series relates to NCM460. Description: Normal cell line, NCM460. The format is cell-based. The note with it: Homo sapiens, read-out: Normal Cell Lines, Colon NCM460.
A further series relates to MCF10A. Nature of the series: Normal cell line, MCF10A. The class given is cell-based. The following applies: Homo sapiens, MCF-10A; read-out: Normal Cell Lines, Breast MCF10A. As for the experimental part:
as §1

Series [1] deals with Normal Cell Lines vs Cancer Cell Lines. Description: Fold selectivity, normal vs cancer cell lines. The class given is cell-based.
A further series relates to SW480. Nature of the series: Cancer cell line IC50, SW480. The format is cell-based. The following applies: Homo sapiens, read-out: Cancer Cell Lines, IC50, Colon SW480.
In a further series the test system is DLD1. Nature of the series: Cancer cell line IC50, DLD1. The class given is cell-based. The following applies: Homo sapiens, DLD-1; read-out: Cancer Cell Lines, IC50, Colon DLD1.
For a further series, the system named is PaCa-2. Description: Cancer cell line IC50, PaCa-2. The format is cell-based. The note with it: Homo sapiens, read-out: Cancer Cell Lines, IC50, Pancreas PaCa-2.
The subject of the next series is human cancer cells. Description: Combination with Taxol, cancer cell survival in vitro. The format is cell-based. The following applies: in the presence of β-Lapachone.
Series [2] concerns human prostate cancer cells (PC-3). Nature of the series: Colony survival, combination with GL331, PC-3. The format is cell-based. From the text:
(§2) The number of colonies in the control well (solvent-treated) was taken as 100% survival.

For series [3], the system named is normal human breast epithelial cells (MCF-10A). Description: Colony formation assay, MCF-10A. The class given is cell-based. The note with it: 4 h treatment, 10-20 days. Here is the method: as §1
In a further series the test system is cytochrome c. Nature of the series: Western blot, cytochrome c release in DLD1. The format is cell-based, human. (In general: In western blotting, separated proteins are transferred to a membrane and probed.)
Series [4] concerns E2F. Description: Gel mobility shift assay, NCM460 nuclear proteins. The following applies: NCM460, 4 μM, up to 2 hours. The format is cell-based, human. From the text: (§3) The arrow denotes the location of the putative E2F protein-DNA complex.
Series [5] deals with human pancreatic cancer cells (Paca-2). Nature of the series: Colony survival, combination with gemcitabine, Paca-2. The class given is cell-based. The note with it: gemcitabine 5 μg/ml day 1 followed by β-lapachone 2 μM day 2.
Description: as §2

Another series concerns PARP. Nature of the series: Western blot, PARP cleavage. The format is cell-based, human. The note with it: after 4 hours of exposure.
Series [6] has as its system normal human Peripheral Blood Mononuclear Cells (PBMC). Description: MTT assay, PBMC. The class given is cell-based. The following applies: 0.5, 2, 4, and 8 μM, 24 h; fresh or proliferating PBMC. As for the experimental part:
Proliferating PBMC were generated by 72 h incubation with phytohemagglutinin (PHA) at 2 μg/mL.
For orientation: Tetrazolium assays rely on reduction of a dye to a coloured formazan, in cell work by metabolically active cells.

For series [7], the system named is human multiple myeloma (MM) cells. Nature of the series: MTT assay, multiple myeloma cells. The note with it: 4 μM, 24 h, all seven MM cell lines. The format is cell-based.
For series [8], the system named is normal human colon cells (NCM460). Nature of the series: Flow cytometry sub-G1 apoptosis, NCM460. The format is cell-based. The following applies: NCM460, 24 h. As for the experimental part: (§4) Cells were treated for 24 h, then were subjected to flow cytometric analysis after staining with propidium iodide.
Background: A flow cytometer gives signals particle by particle.

Series [9] concerns E2F. Description: Gel mobility shift assay, DLD1 nuclear proteins. The following applies: DLD1, 4 μM. The format is cell-based, human.
Description: as §3

Series [10] relates to human colon carcinoma cells (DLD1). Nature of the series: Flow cytometry sub-G1 apoptosis, DLD1. The class given is cell-based. The following applies: DLD1, 2-4 μM, 24 h. Here is the method:
as §4

The subject of series [11] is human colon carcinoma cells (SW480). Nature of the series: Flow cytometry sub-G1 apoptosis, SW480. The format is cell-based. The following applies: SW480, 2-4 μM, 24 h. Here is the method:
as §4

The test system of series [12] is human colon cancer cell line DLD1. Description: Colony formation and MTT assay, DLD1. The class given is cell-based. The note with it: DLD1, 4 hour exposure, 4-5 μM. As for the experimental part: DLD1 cells were seeded into 6-well, 96-well plates and allowed to attach overnight. […] Control cells were treated with DMSO equivalent to the highest dose of β-Lapachone used. For the colony formation assay, colonies were allowed to grow for 14 days; MT assay cells continued in culture for an additional 2 days.

Series [13] concerns human breast cancer cells (MCF-7). Description: Colony formation assay, MCF-7. The class given is cell-based. The note with it: MCF-7, 4 h treatment, 2-4 μM and higher, 10-20 days. Here is the method:
as §1

On to `CC1(C)CCC2=C(S1)c1ccccc1C(=O)C2=O` [3,4-dihydro-2,2-dimethyl-2H-naphtho[1,2-b]thiopyran-5,6-dione], for which the IC50 in the series with MCF-7 is 1 µM; in the series on HT-29, 1.8 µM; with A549 it was 1.7 µM; in the series with NCM460, 7.5 µM; with MCF10A, 6.7 µM; in the series on SW480 it was 1.5 µM. Moreover, the IC50 in the series on DLD1 amounted to 2 µM; in the series on PaCa-2 it was 1.5 µM. Also, the “Fold Selectivity” value in series [1] is recorded as “˜4.5”.
With `CC(C)=CCC1CC2=C(OC1(C)C)c1ccccc1C(=O)C2=O` (stereo not shown) [3,4-dihydro-2,2-dimethyl-3-(3-methyl-2-butenyl)-2H-naphtho[1,2-b]pyran-5,6-dione], the IC50 in the series with MCF-7 amounted to 1 µM; with NCM460, 10 µM; in the series with SW480 it was 1.8 µM; in the series with DLD1, 1.3 µM. The “Fold Selectivity” value in series [1] is on record as “˜7”.
Take `CC1(C)CCSC2=C1C(=O)C(=O)c1ccccc12` [3,4-dihydro-4,4-dimethyl-2H-naphtho[1,2-b]thiopyran-5,6-dione]: the IC50 stood at 1.6 µM in the series with HT-29; 1.6 µM in the series with A549; 6 µM with NCM460; 6.3 µM with MCF10A; 1.2 µM in the series on PaCa-2. Further, the “Fold Selectivity” value in series [1] is “˜4”.
With `CC(=O)O[C@H]1C(=O)[C@@]2(C)[C@H]([C@H](OC(=O)c3ccccc3)[C@]3(O)C[C@H](OC(=O)[C@H](O)[C@@H](NC(=O)c4ccccc4)c4ccccc4)C(C)=C1C3(C)C)[C@]1(OC(C)=O)CO[C@@H]1C[C@@H]2O` [Taxol®, paclitaxel], the “reduction of effective Taxol concentration” value in the series with human cancer cells was “at least 10 fold”.
As for `CC1(C)CCC2=C(O1)c1ccccc1C(=O)C2=O` [β-lapachone, 3,4-dihydro-2,2-dimethyl-2H-naphtho[1,2-b]pyran-5,6-dione], the IC50 in the series on MCF-7 is 1 µM; in the series with HT-29, 2.1 µM; in the series on NCM460, 8.1 µM; in the series on MCF10A it was 5.8 µM; in the series on SW480, 3.3 µM; in the series on DLD1, 3.6 µM. Further, the IC50 with PaCa-2 came to 1.6 µM. The “colony survival, combination with GL331” value in series [2] (β-lapachone 2 μM and GL331 2 μM simultaneously, 4 h) is reported as “complete eradication of colony forming units”; in [2] (β-lapachone 2 μM day 1 followed by GL331 2 μM day 2), “complete eradication of colony forming units”. In addition, in series [3], the number of colonies result was “no reduction in the number of colonies”. In addition, the “size of the colonies” value in [3] is “smaller”. For the same compound, the “time of peak cytochrome c release” value with cytochrome c (DLD1) was 2 h. For the same compound, the “exposure time to cytochrome c release” value in the series on cytochrome c (DLD1, earliest release) was found to be 1 h. In addition, in the series on E2F [4], the “level of E2F expression” value is recorded as “essentially unchanged”. Moreover, in [5], the “colony survival, combination with gemcitabine” value is “complete eradication of colony forming units”. For the same compound, the PARP cleavage entry with PARP is “cleavage of PARP”. Also, the “cytotoxicity to PBMC growth (MTT)” value in series [6] is reported as “No cytotoxicity”. The “cell viability in cultures (MTT)” value in [7] is “significantly decreased”. Also, the “apoptosis (sub-G1 fraction)” value is recorded as “no apoptosis” in [8], “induce apoptosis” in series [10] and “induce apoptosis” in series [11]. For the same compound, the entries for the “nuclear E2F protein levels vs. starting levels” value with E2F [9] (0.5 hours) and in the series on E2F [9] (1 hour) were “increased” and “markedly elevated”, respectively. Besides, the “viable cells (colony formation and MTT assay)” value in series [12] was “eliminates viable cells”. For the same compound, the colonies entry in [13] is recorded as “essentially complete elimination of colonies”.

For the origin of these results see patent US20050054018A1, “Activated checkpoint therapy and methods of use thereof” (priority 2002, published 2005).
